Data published in patent publication US20100082097A1, “Article Containing Segregated Biguanide and Lewis Acid” (priority 2008, published 2010).

Key:
Type in all cases: physicochemical
[1] = GV stability in polyurethane films containing no CHA (HPLC)
Description: (§1) A high pressure liquid chromatography (HPLC) analytical method was developed to quantify Gentian violet and chlorhexidine. Both compounds have ultraviolet or visible wavelength absorbance, and so were characterized using a UV-Vis diode array detector. Chlorhexidine and Gentian violet are identified by retention times versus a set of external standards. The external standards also form a calibration curve that is used to quantify the chlorhexidine and Gentian violet content in samples. The method is summarized as follows:
The sample preparation method, prior to HPLC analysis, is summarized as follows: samples were placed in centrifuge tubes, to which a volume of tetrahydrofuran (THF) was added (according to cited protocols or per examples). The tubes were vortexed until the sample was completely dissolved. For samples used as medical device coatings where a polymer was also present, a volume of deionized water was then added and the tubes were again vortexed for 10 minutes to precipitate the any polymer in the sample. The tubes were then centrifuged for 10 minutes at 4000 RPM to spin the polymer down out of the solution. A small amount of supernatant was transferred to an HPLC vial for analysis.
Polyurethane films, used in the studies described in examples 4-6 and 9-11, were prepared as follows: 500 g of coating solution was prepared by dissolving 3.74% (w/w) Tecoflex 93A resin and 1.17% (w/w) Tecoflex 60D resin in a 74/26% mixture of THF/Methanol. The mixture was stirred until all of the resin was completely dissolved. 3.07% (w/w) chlorhexidine diacetate (CHA) was then added to the coating solution. Solutions containing different concentrations of GV were made by adding 0.1, 0.2, 0.4, 0.6, 0.8 or 1.0% (w/w) GV to 50 g aliquots of the CHA containing coating solution (or resin only solution in the case of GV only coating solution). 0.5 g of the CHA only, GV only, or 0.1-1.0% GV/CHA solutions was added to the bottom of a 30 mL glass vial and allowed to dry under ambient conditions overnight to evaporate the solvent and cast films in the vials. Vacuum dried samples were prepared by further drying the film containing vials at 25° C. under 30 in, Hg for 48 hours. Humidified samples were prepared by adding 75 μL of deionized water to the air dried samples and capping for the duration of the studies.
Gentian violet only films were prepared according to example 2. Half of the vials were then spiked with 75 μL of deionized water and capped to create a 100% humidity environment, while the other half were vacuum dried ([…]) at 25° C. for 48 hours. The vials were then incubated in an oven at 25° C., 35° C., 45° C., and 55° C. for 20 days.
Samples were analyzed post air drying and post 20 day incubation. Sample analysis was performed using the method in Example 1.
Peak area ratios for pararosaniline chlorides are shown in Table 3 at different temperatures for 20 days. The peak area ratios for each temperature are calculated as follows: (Individual peak area)/Σ(individual peak)×100%. The variations are within the limits of experimental error further confirming the stability of GV in polyurethane films containing only GV.

[2] = Brilliant Green-Chlorhexidine formulation in THF/Methanol solvent mixture, observation of solution; settings: with BG, room temperature
Experimental: 1.04 g Tecoflex 60D and 3.28 g Tecoflex 93A in 65 g were added in a glass jar containing 65 g of Tetrahydrofuran and stirred for four (4) hours at 45° C. Once all resin solids have dissolved, 23 g methanol added into the mixture and stirred for one (1) hour. 2.939 g chlorhexidine diacetate (CHA) was added into the solution mixture and stirred overnight at room temperature. Different Brilliant green (BG) concentrations (0.1 wt %-1.0 wt %) were added per the Table 4 below to an aliquot of the polymer-CHA solution and stirred until Brilliant Green dissolved:
Table 5 below lists different formulations of BG and CHA.

[3] = CHA stability in polyurethane films after ethylene oxide (ETO) sterilization; settings: polyurethane films containing only CHA
Experimental: (§2) Degradation is reported in the following examples as measured by HPLC as peak area of the degradant peak divided by the total peak area of the chlorhexidine peak and the degradant peak (i.e. Peak Areadegradant/[Peak Areadegradant+Peak Areachlorhexidine]*100). The peak areas are determined from integration of chromatograms.
as §1
The sample preparation method, prior to HPLC analysis, is summarized as follows: samples were placed in centrifuge tubes, to which a volume of tetrahydrofuran (THF) was added (according to cited protocols or per examples). The tubes were vortexed until the sample was completely dissolved. For samples used as medical device coatings where a polymer was also present, a volume of deionized water was then added and the tubes were again vortexed for 10 minutes to precipitate the any polymer in the sample. […]

[4] = Brilliant Green-Chlorhexidine formulation in DMF/THF solvent mixture, observation of solution; settings: 40/60 THF/DMF, with BG, room temperature
Experimental: In this experiment 40/60 THF/DMF solvent mixture was used instead of THF/Methanol from Example 17. Different Brilliant green (BG) concentrations (0.1 wt %-1.0 wt %) were added per the Table 5 below to an aliquot of the polymer-CHA solution (in Example 17) and stirred until Brilliant Green dissolved: […]

[5] = CHA stability in polyurethane films containing no GV (HPLC); settings: vacuum dried and humidified films, 25, 35, 45, 55° C., 20 day incubation
Experimental: as §2, §1
The sample preparation method, prior to HPLC analysis, is summarized as follows: samples were placed in centrifuge tubes, to which a volume of tetrahydrofuran (THF) was added (according to cited protocols or per examples). The tubes were vortexed until the sample was completely dissolved. […]
Samples were analyzed post air drying and post 20 day incubation. […]

Compound | Peak area ratio for pararosaniline chlorides ([1]; 0 day control) [%] | Peak area ratio for pararosaniline chlorides ([1]; 25° C. at day 20) [%] | Peak area ratio for pararosaniline chlorides ([1]; 35° C. at day 20) [%] | Peak area ratio for pararosaniline chlorides ([1]; 45° C. at day 20) [%] | Peak area ratio for pararosaniline chlorides ([1]; 55° C. at day 20) [%] | degradation products detected in the chromatograms ([1]; vacuum dried and humidified GV only films, 25-55° C., 20 days) | stirring time after which chlorhexidine diacetate precipitated [2] [min] | stability when ETO sterilized [3] | stirring time after which chlorhexidine diacetate precipitated [4] [min] | degradation peaks in the chromatograms [5]
CN(C)c1ccc(C(=C2C=CC(=[N+](C)C)C=C2)c2ccc(N(C)C)cc2)cc1.[Cl-] [Hexamethyl, hexamethylpararosaniline chloride] | 42 | 43 | 44 | 42 | 45 | – | – | – | – | –
CN(C)c1ccc(C(=C2C=CC(=[N+](C)C)C=C2)c2ccc(N(C)C)cc2)cc1 [GV, hexa-methyl pararosaniline chloride, reference compound] | – | – | – | – | – | no degradation products were detected | – | – | – | –
CN(C)c1ccc(C(=C2C=CC(=[N+](C)C)C=C2)c2ccc(N)cc2)cc1.[Cl-] [Tetramethyl, tetramethylpararosaniline chloride] | 14 | 14 | 13 | 14 | 12 | – | – | – | – | –
CN=C1C=CC(=C(c2ccc(N(C)C)cc2)c2ccc(N(C)C)cc2)C=C1.Cl [Pentamethyl, pentamethylpararosaniline chloride] | 44 | 43 | 43 | 44 | 43 | – | – | – | – | –
CC(=O)O.CC(=O)O.NC(=N\CCCCCC/N=C(N)/N=C(\N)Nc1ccc(Cl)cc1)/N=C(\N)Nc1ccc(Cl)cc1 [CHA, chlorhexidine diacetate] | – | – | – | – | – | – | 30 | stable when sterilized | 30 | no degradation peaks
